Data taken from patent US6525001B1, “Substituted pyrimidine and pyridine herbicides” (Mid-American Commercialization Corporation, priority 1997, dated 2003).

Legend:
Type in all cases: in vivo
[1] = tested on: crabgrass (Digitaria spp.); assay: Test A pre-/postemergence; set-up: key: 0 is no effect; 10 is complete control; conditions: 0 to 10 scale
Protocol: (§1) Seeds of barnyardgrass (Echinochloa crus-galli), crabgrass (Digitaria spp.), morningglory (Ipomoea spp.), and velvetleaf (Abutilon theophrasti) were planted into a sandy loam soil and treated preemergence by soil drench with test chemicals formulated in a non-phytotoxic solvent mixture which includes a surfactant. At the same time, these crop and weed species were also treated postemergence sprayed to runoff, with test chemicals formulated in the same manner. Plants ranged in height from two to eighteen cm and were in the one to two leaf stage for the postemergence treatment. Treated plants and untreated controls were maintained in a greenhouse for approximately eleven days, after which all treated plants were compared to untreated controls and visually evaluated for injury. Plant response ratings, summarized in Table A, are based on a 0 to 10 scale where 0 is no effect and 10 is complete control. A dash (−) response means no test results.

[2] = tested on: barnyardgrass (Echinochloa crus-galli); assay: Test A pre-/postemergence; set-up: key: 0 is no effect; 10 is complete control; conditions: 0 to 10 scale
Protocol: as §1

[3] = tested on: morningglory (Ipomoea spp.); assay: Test A pre-/postemergence; set-up: key: 0 is no effect; 10 is complete control; conditions: 0 to 10 scale
Protocol: as §1

[4] = tested on: velvetleaf (Abutilon theophrasti); assay: Test A pre-/postemergence; set-up: key: 0 is no effect; 10 is complete control; conditions: 0 to 10 scale
Protocol: as §1

[5] = tested on: eastern black nightshade (Solanum ptycanthum); assay: Test C; set-up: key: 0 was no effect; 100 was complete control; conditions: PREEMERGENCE
[6] = tested on: soybean (Glycine max); assay: Test C; set-up: key: 0 was no effect; 100 was complete control; conditions: PREEMERGENCE
[7] = tested on: arrowleaf sida (Sida rhombifolia); assay: Test C; set-up: key: 0 was no effect; 100 was complete control; conditions: PREEMERGENCE
[8] = tested on: ivyleaf morningglory (Ipomoea hederacea); assay: Test C; set-up: key: 0 was no effect; 100 was complete control; conditions: PREEMERGENCE
[9] = tested on: wild poinsettia (Euphorbia heterophylla); assay: Test C; set-up: key: 0 was no effect; 100 was complete control; conditions: PREEMERGENCE
[10] = tested on: velvetleaf (Abutilon theophrasti); assay: Test C; set-up: key: 0 was no effect; 100 was complete control; conditions: PREEMERGENCE
[11] = tested on: fall panicum (Panicum dichotomiflorum); assay: Test C; set-up: key: 0 was no effect; 100 was complete control; conditions: PREEMERGENCE
[12] = tested on: hairy beggarticks (Bidens pilosa); assay: Test C; set-up: key: 0 was no effect; 100 was complete control; conditions: PREEMERGENCE
[13] = tested on: barnyardgrass (Echinochloa crus-galli); assay: Test C; set-up: key: 0 was no effect; 100 was complete control; conditions: PREEMERGENCE
[14] = tested on: large crabgrass (Digitaria sanguinalis); assay: Test C; set-up: key: 0 was no effect; 100 was complete control; conditions: PREEMERGENCE
[15] = tested on: ladysthumb smartweed (Polygonum persicaria); assay: Test C; set-up: key: 0 was no effect; 100 was complete control; conditions: PREEMERGENCE
[16] = tested on: common ragweed (Ambrosia elatior); assay: Test C; set-up: key: 0 was no effect; 100 was complete control; conditions: PREEMERGENCE
[17] = tested on: purple nutsedge (Cyperus rotundus); assay: Test E pre-/postemergence/post directed; set-up: key: 0 is no injury; 100 is complete control
Excerpt: Seeds, tubers, or plant parts of alexandergrass (Brachiaria plantaginea), annual bluegrass (Poa annua), arrowleaf sida (Sida rhombifolia), barnyardgrass (Echinochloa crus-galli), bermudagrass (Cynodon dactylon), citrus (Citrus sinensis), common chickweed (Stellaria media), common purslane (Portulaca oleracea), common ragweed (Ambrosia elatior), common groundsel (Senecio vulgaris), dallisgrass (Paspalum dilatatum), goosegrass (Eleusine indica), green foxtail (Setaria viridis), guineagrass (Panicum maximum), itchgrass (Rottboellia exaltata), johnson grass (Sorghum halepense), kochia (Kochia scoparia), large crabgrass (Digitaria sanguinalis), leafy spurge (Euphorbia esula), pitted morningglory (Ipomoea lacunosa), purple nutsedge (Cyperus rotundus), quackgrass (Agropyron repens), Russian thistle (Salsola kali), sandbur (Cenchrus echinatus), sourgrass (Trichachne insularis), Spanishneedles (Bidens bipinnata), sugarcane (Saccharum officinarum), surinam grass (Brachiaria decumbens) and tall mallow (Malva sylvestris) were planted into greenhouse pots of flats containing greenhouse planting medium. Plant species were grown grown in separate pots or individual compartments. Preemergence applications were made within one day of planting the seed or plant part. Postemergence applications were applied when the plants were in the two to four leaf stage (three to twenty cm).
Test chemicals were formulated in a non-phytotoxic solvent mixture which included a surfactant and applied preemergence to the soil surface, postemergence to the plants or as a post directed spray to plants and soil at the base of the target species. Untreated control plants and treated plants were placed in the greenhouse and visually evaluated for injury 13 to 21 days after herbicide application. Plant response ratings, summarized in Table E, are based on a 0 to 100 scale where 0 is no injury and 100 is complete control. A dash (−) response means no test result.

[18] = PRE SOIL DRENCH, Rate 2000 g/ha
[19] = postemergence SPRAYED TO RUNOFF, Rate 1000 g/ha

| SMILES | Plant response rating, E. blacknightsh ([5]; Rate 35 g/ha) | Plant response rating, E. blacknightsh ([5]; Rate 70 g/ha) | Plant response rating, E. blacknightsh ([5]; Rate 140 g/ha) | Plant response rating, Soybean ([6]; Rate 35 g/ha) | Plant response rating, Soybean ([6]; Rate 70 g/ha) | Plant response rating, Soybean ([6]; Rate 140 g/ha) | Plant response rating, Arrowleaf sida ([7]; Rate 35 g/ha) | Plant response rating, Arrowleaf sida ([7]; Rate 70 g/ha) | Plant response rating, Arrowleaf sida ([7]; Rate 140 g/ha) | Plant response rating, I. morningglory ([8]; Rate 35 g/ha) | Plant response rating, I. morningglory ([8]; Rate 140 g/ha) | Plant response rating, Wild poinsettia ([9]; Rate 35 g/ha) | Plant response rating, Wild poinsettia ([9]; Rate 70 g/ha) | Plant response rating, Wild poinsettia ([9]; Rate 140 g/ha) | Plant response rating, Velvetleaf ([10]; Rate 35 g/ha) | Plant response rating, Velvetleaf ([10]; Rate 140 g/ha) | Plant response rating, Fall panicum ([11]; Rate 35 g/ha) | Plant response rating, Fall panicum ([11]; Rate 70 g/ha) | Plant response rating, Fall panicum ([11]; Rate 140 g/ha) | Plant response rating, H. beggarticks ([12]; Rate 35 g/ha) | also measured |
| --- | --- | --- | --- | --- | --- | --- | --- | --- | --- | --- | --- | --- | --- | --- | --- | --- | --- | --- | --- | --- | --- |
| Cc1cnc(-n2ccc(C(F)(F)F)n2)nc1C(=O)c1cccc(C(F)(F)F)c1 [Compound 59] | – | – | – | – | – | – | – | – | – | – | – | – | – | – | – | – | – | – | – | – | Plant response rating, Crabgrass [1, 18]: 10; Plant response rating, Crabgrass [1, 19]: 9; Plant response rating, Barnyardgrass [2, 18]: 10; Plant response rating, Barnyardgrass [2, 19]: 9; Plant response rating, Morningglory [3, 18]: 9; Plant response rating, Morningglory [3, 19]: 8; Plant response rating, Velvetleaf [4, 18]: 10; Plant response rating, Velvetleaf [4, 19]: 9 |
| Cc1cnc(-c2ccc(C(F)(F)F)cc2)nc1C(Cl)c1cccc(C(F)(F)F)c1 (racemic) [Compound 21] | 40 | 80 | 85 | 0 | 0 | 5 | 70 | 85 | 90 | 0 | 0 | 0 | 5 | 5 | 0 | 50 | 10 | 0 | 90 | 0 | Plant response rating, I. morningglory ([8]; Rate 70 g/ha): 0; Plant response rating, Velvetleaf ([10]; Rate 70 g/ha): 50; Plant response rating, H. beggarticks ([12]; Rate 70 g/ha): 0; Plant response rating, H. beggarticks ([12]; Rate 140 g/ha): 40; Plant response rating, Barnyardgrass ([13]; Rate 35 g/ha): 0; Plant response rating, Barnyardgrass ([13]; Rate 70 g/ha): 0; Plant response rating, Barnyardgrass ([13]; Rate 140 g/ha): 5; Plant response rating, Large crabgrass ([14]; Rate 35 g/ha): 80; Plant response rating, Large crabgrass ([14]; Rate 70 g/ha): 100; Plant response rating, Large crabgrass ([14]; Rate 140 g/ha): 100; Plant response rating, Ladysthumb ([15]; Rate 35 g/ha): 0; Plant response rating, Ladysthumb ([15]; Rate 140 g/ha): 5; Plant response rating, Common ragweed ([16]; Rate 35 g/ha): 0; Plant response rating, Common ragweed ([16]; Rate 70 g/ha): 0; Plant response rating, Common ragweed ([16]; Rate 140 g/ha): 20 |
| COc1cnc(-c2ccc(C(F)(F)F)cc2)nc1Cc1cccc(C(F)(F)F)c1 [Compound 23] | 95 | 100 | 100 | 5 | 5 | 10 | 80 | 100 | 100 | 5 | 40 | 5 | 5 | 10 | 50 | 50 | 55 | 100 | 100 | 50 | Plant response rating, H. beggarticks ([12]; Rate 70 g/ha): 50; Plant response rating, H. beggarticks ([12]; Rate 140 g/ha): 100; Plant response rating, Barnyardgrass ([13]; Rate 35 g/ha): 0; Plant response rating, Barnyardgrass ([13]; Rate 70 g/ha): 5; Plant response rating, Barnyardgrass ([13]; Rate 140 g/ha): 10; Plant response rating, Large crabgrass ([14]; Rate 35 g/ha): 100; Plant response rating, Large crabgrass ([14]; Rate 70 g/ha): 100; Plant response rating, Large crabgrass ([14]; Rate 140 g/ha): 100; Plant response rating, Ladysthumb ([15]; Rate 35 g/ha): 5; Plant response rating, Ladysthumb ([15]; Rate 70 g/ha): 80; Plant response rating, Ladysthumb ([15]; Rate 140 g/ha): 80; Plant response rating, Purple nutsedge ([17]; POSTEMERGENCE, Rate 250 g/ha): 0; Plant response rating, Purple nutsedge ([17]; PREEMERGENCE, Rate 32 g/ha): 0; Plant response rating, Purple nutsedge ([17]; PREEMERGENCE, Rate 64 g/ha): 0; Plant response rating, Purple nutsedge ([17]; PREEMERGENCE, Rate 125 g/ha): 0; Plant response rating, Purple nutsedge ([17]; PREEMERGENCE, Rate 250 g/ha): 0; Plant response rating, Common ragweed ([16]; Rate 35 g/ha): 10; Plant response rating, Common ragweed ([16]; Rate 70 g/ha): 30; Plant response rating, Common ragweed ([16]; Rate 140 g/ha): 90 |
| Cc1cnc(-n2cnc(C(F)(F)F)n2)nc1Cc1cccc(C(F)(F)F)c1 [Compound 43] | 100 | 100 | 100 | 0 | 5 | 55 | 100 | 100 | 100 | 20 | 100 | 10 | 50 | 60 | 100 | 100 | 100 | 100 | 100 | 0 | Plant response rating, I. morningglory ([8]; Rate 70 g/ha): 100; Plant response rating, Velvetleaf ([10]; Rate 70 g/ha): 100; Plant response rating, H. beggarticks ([12]; Rate 70 g/ha): 5; Plant response rating, H. beggarticks ([12]; Rate 140 g/ha): 100; Plant response rating, Barnyardgrass ([13]; Rate 35 g/ha): 10; Plant response rating, Barnyardgrass ([13]; Rate 70 g/ha): 30; Plant response rating, Barnyardgrass ([13]; Rate 140 g/ha): 50; Plant response rating, Large crabgrass ([14]; Rate 35 g/ha): 100; Plant response rating, Large crabgrass ([14]; Rate 70 g/ha): 100; Plant response rating, Large crabgrass ([14]; Rate 140 g/ha): 100; Plant response rating, Common ragweed ([16]; Rate 35 g/ha): 0; Plant response rating, Common ragweed ([16]; Rate 70 g/ha): 40; Plant response rating, Common ragweed ([16]; Rate 140 g/ha): 50 |
| Cc1cnc(-n2ccc(C(F)(F)F)n2)nc1C(=O)c1cccc(OC(F)(F)F)c1 [Compound 66] | 0 | 10 | 30 | 0 | 0 | 0 | 5 | 5 | 100 | 5 | 10 | 0 | 0 | 0 | 0 | 0 | 80 | 80 | 100 | 0 | Plant response rating, I. morningglory ([8]; Rate 70 g/ha): 10; Plant response rating, Velvetleaf ([10]; Rate 70 g/ha): 0; Plant response rating, H. beggarticks ([12]; Rate 70 g/ha): 0; Plant response rating, H. beggarticks ([12]; Rate 140 g/ha): 0; Plant response rating, Barnyardgrass ([13]; Rate 35 g/ha): 0; Plant response rating, Barnyardgrass ([13]; Rate 70 g/ha): 5; Plant response rating, Barnyardgrass ([13]; Rate 140 g/ha): 5; Plant response rating, Large crabgrass ([14]; Rate 35 g/ha): 80; Plant response rating, Large crabgrass ([14]; Rate 70 g/ha): 100; Plant response rating, Large crabgrass ([14]; Rate 140 g/ha): 100; Plant response rating, Ladysthumb ([15]; Rate 35 g/ha): 0; Plant response rating, Ladysthumb ([15]; Rate 140 g/ha): 70; Plant response rating, Common ragweed ([16]; Rate 35 g/ha): 0; Plant response rating, Common ragweed ([16]; Rate 70 g/ha): 0; Plant response rating, Common ragweed ([16]; Rate 140 g/ha): 30 |
| Cc1cnc(-n2cnc(C(F)(F)F)n2)nc1C(=O)c1cccc(C(F)(F)F)c1 [Compound 67] | – | – | – | – | – | – | – | – | – | – | – | – | – | – | – | – | – | – | – | – | Plant response rating, Purple nutsedge ([17]; PREEMERGENCE, Rate 32 g/ha): 0; Plant response rating, Purple nutsedge ([17]; PREEMERGENCE, Rate 64 g/ha): 5; Plant response rating, Purple nutsedge ([17]; PREEMERGENCE, Rate 125 g/ha): 5; Plant response rating, Purple nutsedge ([17]; PREEMERGENCE, Rate 250 g/ha): 10 |
